Data published in US20170355705A1 (GlaxoSmithKline Intellectual Property (No.2) Limited, priority 2014, published 2017).

Target: T1, SIRT1 (Homo sapiens, UniProt Q96EB6)
T1 sequence (Q96EB6 1-747): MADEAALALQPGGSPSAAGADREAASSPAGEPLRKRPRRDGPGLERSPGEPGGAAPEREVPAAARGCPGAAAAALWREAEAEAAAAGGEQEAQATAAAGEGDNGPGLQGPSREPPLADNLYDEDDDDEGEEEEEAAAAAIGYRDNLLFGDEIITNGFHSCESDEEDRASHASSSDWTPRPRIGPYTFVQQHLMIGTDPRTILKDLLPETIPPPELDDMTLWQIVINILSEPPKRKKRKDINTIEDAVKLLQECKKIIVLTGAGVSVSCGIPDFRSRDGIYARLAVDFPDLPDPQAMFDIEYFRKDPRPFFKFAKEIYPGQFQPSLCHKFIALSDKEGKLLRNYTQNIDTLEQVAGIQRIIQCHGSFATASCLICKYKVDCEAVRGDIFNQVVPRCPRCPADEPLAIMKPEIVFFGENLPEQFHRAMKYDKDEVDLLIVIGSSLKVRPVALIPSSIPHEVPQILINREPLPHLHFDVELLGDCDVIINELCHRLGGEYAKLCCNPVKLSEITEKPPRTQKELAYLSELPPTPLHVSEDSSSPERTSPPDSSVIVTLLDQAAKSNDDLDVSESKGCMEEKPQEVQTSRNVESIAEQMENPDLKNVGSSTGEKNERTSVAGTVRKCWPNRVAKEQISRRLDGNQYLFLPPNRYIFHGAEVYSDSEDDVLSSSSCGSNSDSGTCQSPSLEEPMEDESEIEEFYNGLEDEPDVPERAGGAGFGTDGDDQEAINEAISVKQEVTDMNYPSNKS
Assay: Trp mass spectrometry assay of SIRT1 activity (EC1.5, percent maximum activation)
Format: biochemical
Details: Trp mass spectrometry assay; for TRP Activity (EC1.5): EC1.5 = concentration giving 150% activation of SIRT1; for TRP MAX RESP (percent maximum fold activation): percent maximum activation of SIRT1
Summary of the method: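 Mass spectrometry read-out (OAADPR formed, or deacetylated Trp peptide) after a 25 min NAD-dependent deacetylation by E. coli-expressed His-SIRT1, stopped with formic acid.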

| TRP Activity (EC1.5) | TRP MAX RESP (percent maximum fold activation) | SMILES |
| --- | --- | --- |
| C (EC1.5>25 μM) | B (Fold Activation <150%) | Cc1cc(-c2nc3c(cc2Cl)N2CC[C@@H](C2)N3C(=O)Nc2cncc(OC[C@@H](O)CO)n2)ccn1 [Example 98, (4S)-8-chloro-N-(6-((S)-2,3-dihydroxypropoxy)pyrazin-2-yl)-7-(2-methylpyridin-4-yl)-3,4-dihydro-1,4-methanopyrido[2,3-b][1,4]diazepine-5(2H)-carboxamide] |
| B (EC1.5 1-25 μM) | A (Fold activation ≧150%) | COc1ncc(-c2nc3c(cc2Cl)N2CC[C@@H](C2)N3C(=O)Nc2ccnc(OC[C@@H](O)CO)c2)cc1C(F)(F)F [Example 99, (4S)-8-chloro-N-(2-((S)-2,3-dihydroxypropoxy)pyridin-4-yl)-7-(6-methoxy-5-(trifluoromethyl)pyridin-3-yl)-3,4-dihydro-1,4-methanopyrido[2,3-b][1,4]diazepine-5(2H)-carboxamide] |
| B (EC1.5 1-25 μM) | A (Fold activation ≧150%) | O=C(Nc1ccnc(OC[C@H](O)CO)c1)N1c2nc(-c3cnn(C4CC4)c3)c(Cl)cc2N2CC[C@H]1C2 [Example 100, (4S)-8-chloro-7-(1-cyclopropyl-1H-pyrazol-4-yl)-N-(2-((R)-2,3-dihydroxypropoxy)pyridin-4-yl)-3,4-dihydro-1,4-methanopyrido[2,3-b][1,4]diazepine-5(2H)-carboxamide] |
| A (EC1.5<1 μM) | A (Fold activation ≧150%) | Cc1cc2c(nc1-c1cccc(C(F)(F)F)c1)N(C(=O)Nc1ccnc(OC[C@@H](O)CO)c1)[C@H]1CCN2C1 [Example 101, (4S)-N-(2-((S)-2,3-dihydroxypropoxy)pyridin-4-yl)-8-methyl-7-(3-(trifluoromethyl)phenyl)-3,4-dihydro-1,4-methanopyrido[2,3-b][1,4]diazepine-5(2H)-carboxamide] |
| B (EC1.5 1-25 μM) | A (Fold activation ≧150%) | O=C(Nc1ccnc(OC[C@@H](O)CO)c1)N1c2nc(-c3cnn(C4CC4)c3)c(Cl)cc2N2CC[C@H]1C2 [Example 102, (4S)-8-chloro-7-(1-cyclopropyl-1H-pyrazol-4-yl)-N-(2-((S)-2,3-dihydroxypropoxy)pyridin-4-yl)-3,4-dihydro-1,4-methanopyrido[2,3-b][1,4]diazepine-5(2H)-carboxamide] |
| B (EC1.5 1-25 μM) | A (Fold activation ≧150%) | COc1ncc(C(F)(F)F)cc1-c1nc2c(cc1Cl)N1CC[C@@H](C1)N2C(=O)Nc1ccnc(OC[C@@H](O)CO)c1 [Example 103, (4S)-8-chloro-N-(2-((S)-2,3-dihydroxypropoxy)pyridin-4-yl)-7-(2-methoxy-5-(trifluoromethyl)pyridin-3-yl)-3,4-dihydro-1,4-methanopyrido[2,3-b][1,4]diazepine-5(2H)-carboxamide] |
| A (EC1.5<1 μM) | A (Fold activation ≧150%) | N#Cc1cc2c(nc1-c1cccc(C(F)(F)F)c1)N(C(=O)Nc1ccnc(OC[C@@H](O)CO)c1)[C@H]1CCN2C1 [Example 104, (4S)-8-cyano-N-(2-((S)-2,3-dihydroxypropoxy)pyridin-4-yl)-7-(3-(trifluoromethyl)phenyl)-3,4-dihydro-1,4-methanopyrido[2,3-b][1,4]diazepine-5(2H)-carboxamide] |
| B (EC1.5 1-25 μM) | A (Fold activation ≧150%) | Cn1cc(-c2nc3c(cc2Cl)N2CC[C@@H](C2)N3C(=O)Nc2ccnc(OC[C@@H](O)CO)c2)cn1 [Example 105, (4S)-8-chloro-N-(2-((S)-2,3-dihydroxypropoxy)pyridin-4-yl)-7-(1-methyl-1H-pyrazol-4-yl)-3,4-dihydro-1,4-methanopyrido[2,3-b][1,4]diazepine-5(2H)-carboxamide] |
| B (EC1.5 1-25 μM) | A (Fold activation ≧150%) | Cn1cc(-c2nc3c(cc2Cl)N2CC[C@@H](C2)N3C(=O)Nc2ccnc(OC[C@H](O)CO)c2)cn1 [Example 106, (4S)-8-chloro-N-(2-((R)-2,3-dihydroxypropoxy)pyridin-4-yl)-7-(1-methyl-1H-pyrazol-4-yl)-3,4-dihydro-1,4-methanopyrido[2,3-b][1,4]diazepine-5(2H)-carboxamide] |
| A (EC1.5<1 μM) | A (Fold activation ≧150%) | O=C(Nc1ccnc(OC[C@@H](O)CO)c1)N1c2nc(-c3cccc(C(F)F)c3)c(Cl)cc2N2CC[C@H]1C2 [Example 107, (4S)-8-chloro-7-(3-(difluoromethyl)phenyl)-N-(2-((S)-2,3-dihydroxypropoxy)pyridin-4-yl)-3,4-dihydro-1,4-methanopyrido[2,3-b][1,4]diazepine-5(2H)-carboxamide] |
| B (EC1.5 1-25 μM) | A (Fold activation ≧150%) | O=C(Nc1ccnc(OC[C@@H](O)CO)c1)N1c2nc(-c3ccnc(C(F)(F)F)c3)c(Cl)cc2N2CC[C@H]1C2 [Example 108, (4S)-8-chloro-N-(2-((S)-2,3-dihydroxypropoxy)pyridin-4-yl)-7-(2-(trifluoromethyl)pyridin-4-yl)-3,4-dihydro-1,4-methanopyrido[2,3-b][1,4]diazepine-5(2H)-carboxamide] |
| B (EC1.5 1-25 μM) | A (Fold activation ≧150%) | O=C(Nc1ccnc(OC[C@@H](O)CO)c1)N1c2nc(-c3cncc(C(F)(F)F)c3)c(Cl)cc2N2CC[C@H]1C2 [Example 109, (4S)-8-chloro-N-(2-((S)-2,3-dihydroxypropoxy)pyridin-4-yl)-7-(5-(trifluoromethyl)pyridin-3-yl)-3,4-dihydro-1,4-methanopyrido[2,3-b][1,4]diazepine-5(2H)-carboxamide] |
| B (EC1.5 1-25 μM) | A (Fold activation ≧150%) | Cc1cc(-c2nc3c(cc2Cl)N2CC[C@@H](C2)N3C(=O)Nc2cncc(OC[C@@H](O)CO)c2)ccn1 [Example 110, (4S)-8-chloro-N-(5-((S)-2,3-dihydroxypropoxy)pyridin-3-yl)-7-(2-methylpyridin-4-yl)-3,4-dihydro-1,4-methanopyrido[2,3-b][1,4]diazepine-5(2H)-carboxamide] |
| B (EC1.5 1-25 μM) | A (Fold activation ≧150%) | O=C(Nc1ccccn1)N1c2nc(N3CCC[C@H]3C(F)(F)F)ccc2N2CC[C@H]1C2 [Example 120, (4S)-N-(pyridin-2-yl)-7-((S)-2-(trifluoromethyl)pyrrolidin-1-yl)-3,4-dihydro-1,4-methanopyrido[2,3-b][1,4]diazepine-5(2H)-carboxamide] |
| B (EC1.5 1-25 μM) | A (Fold activation ≧150%) | Cc1cc(-c2ccc3c(n2)N(C(=O)Nc2ccc4c(c2)OCCO4)[C@H]2CCN3C2)ccn1 [Example 121, (4S)-N-(2,3-dihydrobenzo[b][1,4]dioxin-6-yl)-7-(2-methylpyridin-4-yl)-3,4-dihydro-1,4-methanopyrido[2,3-b][1,4]diazepine-5(2H)-carboxamide] |
| A (EC1.5<1 μM) | A (Fold activation ≧150%) | CCc1cncc(NC(=O)N2c3nc(-c4ccnc(C)c4)ccc3N3CC[C@H]2C3)n1 [Example 122, (4S)-N-(6-ethylpyrazin-2-yl)-7-(2-methylpyridin-4-yl)-3,4-dihydro-1,4-methanopyrido[2,3-b][1,4]diazepine-5(2H)-carboxamide] |
| A (EC1.5<1 μM) | A (Fold activation ≧150%) | O=C(Nc1cncc(OC[C@@H](O)CO)n1)N1c2nc(-c3cccc(C(F)(F)F)c3)ccc2N2CC[C@H]1C2 [Example 123, (4S)-N-(6-((S)-2,3-dihydroxypropoxy)pyrazin-2-yl)-7-(3-(trifluoromethyl)phenyl)-3,4-dihydro-1,4-methanopyrido[2,3-b][1,4]diazepine-5(2H)-carboxamide] |
